Data on 1 molecule can be found in patent US8772480B2, “Inhibitors of PI3 kinase and/or mTOR” (priority 2009, dated 2014).

In general, Ki refers to the dissociation constant of the complex between target and ligand, obtained from inhibition or displacement. What is called IC50 is the concentration that gives 50% inhibition.

Assay [1] deals with ProfilerPro Kinase Selectivity Assay Kit kinases (Homo sapiens, UniProt O00141). It is filed as biochemical. To be noted: SGK1; 1 μM compound concentration.
Experimental: (§1) Compounds were profiled using a LabChip® EZ Reader II platform and a ProfilerPro Kinase Selectivity Assay Kit (Caliper Lifesciences Inc., Hopkinton, Mass.). Compounds were tested at a concentration of 1 M in duplicate, with mean data reported as percent of control (POC).
For assay [2], the target named is ProfilerPro Kinase Selectivity Assay Kit kinases (Homo sapiens, UniProt O75116). It is filed as biochemical. To be noted: ROCK2; 1 μM compound concentration.
Experimental: as §1
The target of assay [3] is ProfilerPro Kinase Selectivity Assay Kit kinases (Homo sapiens, UniProt O96017). It is filed as biochemical. To be noted: CHK2; 1 μM compound concentration.
Experimental: as §1
Assay [4] addresses ProfilerPro Kinase Selectivity Assay Kit kinases (Homo sapiens, UniProt P06241). It is filed as biochemical. To be noted: FYN; 1 μM compound concentration.
Experimental: as §1
The target of assay [5] is ProfilerPro Kinase Selectivity Assay Kit kinases (Homo sapiens, UniProt P31751). Format: biochemical. To be noted: AKT2; 1 μM compound concentration.
Experimental: as §1
Assay [6] deals with ProfilerPro Kinase Selectivity Assay Kit kinases (Homo sapiens, UniProt P35968). Format: biochemical. The settings on record: KDR; 1 μM compound concentration.
Experimental: as §1
The target in assay [7] is ProfilerPro Kinase Selectivity Assay Kit kinases (Homo sapiens, UniProt P43405). Format: biochemical. The settings on record: SYK; 1 μM compound concentration.
Experimental: as §1
Assay [8] addresses ProfilerPro Kinase Selectivity Assay Kit kinases (Homo sapiens, UniProt P49137). Format: biochemical. The settings on record: MAPKAPK2; 1 μM compound concentration.
Experimental: as §1
The target of assay [9] is ProfilerPro Kinase Selectivity Assay Kit kinases (Homo sapiens, UniProt Q05513). It is filed as biochemical. To be noted: PKC zeta; 1 μM compound concentration.
Experimental: as §1
The target in assay [10] is ProfilerPro Kinase Selectivity Assay Kit kinases (Homo sapiens, UniProt Q13177). It is filed as biochemical. The settings on record: PAK2; 1 μM compound concentration.
Experimental: as §1
For assay [11], the target named is ProfilerPro Kinase Selectivity Assay Kit kinases (Homo sapiens, UniProt Q9BZL6). Format: biochemical. The settings on record: PKD2; 1 μM compound concentration.
Experimental: as §1
Assay [12] addresses ProfilerPro Kinase Selectivity Assay Kit kinases (Homo sapiens, UniProt Q9P1W9). Format: biochemical. To be noted: PIM2; 1 μM compound concentration.
Experimental: as §1
Assay [13] has as its system ProfilerPro Kinase Selectivity Assay Kit kinases. Format: biochemical. To be noted: 1 μM compound concentration.
Experimental: as §1
In assay [14] the target is PI3Kα (Homo sapiens (Human), UniProt P42336). To be noted: read-out: PI3Kα AlphaScreen ® Ki.
For assay [15], the target named is human mutant B-raf (HuBraf V600E) (Homo sapiens (Human), UniProt P15056, V600E). The settings on record: at 10 μM compound concentration; POC = 100 − percent inhibition.
In assay [16] the test system is phosphorylation of Akt at Serine 473 in U87 MG cells. The assay is described as follows: cells. The settings on record: Homo sapiens, U-87 MG, 2 h, read-out: U87Cell IC50, pAkt (Ser 473), U87 MG cells, two hours with compound.

Chain of ProfilerPro Kinase Selectivity Assay Kit kinases (Homo sapiens, UniProt P06241) (P06241 2-537 limits assumed): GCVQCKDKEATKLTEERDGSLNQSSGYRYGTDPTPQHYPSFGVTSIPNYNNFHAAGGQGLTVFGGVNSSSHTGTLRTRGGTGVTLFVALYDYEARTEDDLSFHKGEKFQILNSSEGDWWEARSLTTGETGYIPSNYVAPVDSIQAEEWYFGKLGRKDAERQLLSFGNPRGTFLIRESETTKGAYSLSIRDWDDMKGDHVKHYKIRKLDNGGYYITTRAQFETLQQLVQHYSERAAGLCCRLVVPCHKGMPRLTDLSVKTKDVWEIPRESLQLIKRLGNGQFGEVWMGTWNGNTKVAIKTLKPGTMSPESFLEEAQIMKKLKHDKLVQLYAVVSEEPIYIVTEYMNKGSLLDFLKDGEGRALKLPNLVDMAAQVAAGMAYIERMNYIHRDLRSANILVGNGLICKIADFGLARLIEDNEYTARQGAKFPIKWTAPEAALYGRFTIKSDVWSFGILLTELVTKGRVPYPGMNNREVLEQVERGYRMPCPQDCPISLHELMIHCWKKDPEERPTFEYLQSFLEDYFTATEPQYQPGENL
Chain of human mutant B-raf (HuBraf V600E) (P15056 whole entry V600E): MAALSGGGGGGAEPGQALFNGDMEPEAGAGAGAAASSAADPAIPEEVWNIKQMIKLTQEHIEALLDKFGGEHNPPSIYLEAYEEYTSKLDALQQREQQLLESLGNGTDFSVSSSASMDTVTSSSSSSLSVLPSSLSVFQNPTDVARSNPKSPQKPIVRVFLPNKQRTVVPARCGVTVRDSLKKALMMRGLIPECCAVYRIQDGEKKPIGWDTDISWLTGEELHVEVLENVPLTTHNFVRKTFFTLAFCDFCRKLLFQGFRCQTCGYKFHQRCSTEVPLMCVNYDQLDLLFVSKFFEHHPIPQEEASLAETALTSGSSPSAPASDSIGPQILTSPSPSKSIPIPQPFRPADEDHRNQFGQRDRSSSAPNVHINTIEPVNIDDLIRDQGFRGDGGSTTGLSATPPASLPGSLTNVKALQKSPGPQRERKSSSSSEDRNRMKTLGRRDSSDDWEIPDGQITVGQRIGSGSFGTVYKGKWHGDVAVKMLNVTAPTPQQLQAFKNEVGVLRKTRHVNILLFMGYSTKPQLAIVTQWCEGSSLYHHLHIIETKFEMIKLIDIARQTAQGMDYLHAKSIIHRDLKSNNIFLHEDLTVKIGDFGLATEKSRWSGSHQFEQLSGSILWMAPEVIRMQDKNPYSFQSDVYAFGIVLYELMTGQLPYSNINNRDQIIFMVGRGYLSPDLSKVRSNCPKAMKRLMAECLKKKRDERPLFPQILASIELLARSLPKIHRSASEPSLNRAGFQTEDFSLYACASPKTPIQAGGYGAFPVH
Chain of ProfilerPro Kinase Selectivity Assay Kit kinases (Homo sapiens, UniProt P35968) (P35968 20-1356 limits assumed): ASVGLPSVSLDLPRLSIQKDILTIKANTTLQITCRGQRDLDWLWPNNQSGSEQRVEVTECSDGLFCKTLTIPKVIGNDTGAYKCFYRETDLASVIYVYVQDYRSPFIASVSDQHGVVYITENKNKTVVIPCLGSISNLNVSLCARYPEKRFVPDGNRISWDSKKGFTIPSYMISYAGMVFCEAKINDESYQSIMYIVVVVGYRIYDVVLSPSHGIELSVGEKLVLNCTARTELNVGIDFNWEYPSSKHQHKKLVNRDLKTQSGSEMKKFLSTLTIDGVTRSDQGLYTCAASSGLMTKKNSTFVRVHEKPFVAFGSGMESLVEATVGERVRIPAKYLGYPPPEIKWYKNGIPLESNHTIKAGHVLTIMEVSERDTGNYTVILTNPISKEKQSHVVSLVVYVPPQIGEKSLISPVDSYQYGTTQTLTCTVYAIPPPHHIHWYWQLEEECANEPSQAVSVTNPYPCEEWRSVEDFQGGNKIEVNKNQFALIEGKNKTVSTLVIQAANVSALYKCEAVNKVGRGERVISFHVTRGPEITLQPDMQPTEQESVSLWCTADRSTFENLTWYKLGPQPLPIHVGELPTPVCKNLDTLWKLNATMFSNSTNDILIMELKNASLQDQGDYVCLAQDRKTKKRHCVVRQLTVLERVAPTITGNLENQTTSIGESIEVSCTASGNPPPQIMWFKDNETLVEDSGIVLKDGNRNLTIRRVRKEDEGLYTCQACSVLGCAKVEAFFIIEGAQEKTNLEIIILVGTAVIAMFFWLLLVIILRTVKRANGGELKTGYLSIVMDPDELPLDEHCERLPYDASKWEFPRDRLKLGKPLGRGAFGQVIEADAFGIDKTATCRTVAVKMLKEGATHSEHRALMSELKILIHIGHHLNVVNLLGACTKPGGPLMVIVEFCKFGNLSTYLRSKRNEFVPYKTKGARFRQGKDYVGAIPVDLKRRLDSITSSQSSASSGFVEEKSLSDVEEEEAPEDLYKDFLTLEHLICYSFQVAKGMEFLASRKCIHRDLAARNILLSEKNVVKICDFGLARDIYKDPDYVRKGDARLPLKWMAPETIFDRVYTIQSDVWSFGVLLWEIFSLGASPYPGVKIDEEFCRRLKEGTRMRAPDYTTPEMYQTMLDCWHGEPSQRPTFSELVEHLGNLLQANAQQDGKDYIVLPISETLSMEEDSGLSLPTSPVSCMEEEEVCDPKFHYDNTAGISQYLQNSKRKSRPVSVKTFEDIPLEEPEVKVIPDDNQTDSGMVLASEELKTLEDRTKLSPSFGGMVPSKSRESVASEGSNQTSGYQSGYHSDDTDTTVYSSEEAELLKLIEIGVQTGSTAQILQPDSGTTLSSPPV
Chain of PI3Kα (P42336 whole entry): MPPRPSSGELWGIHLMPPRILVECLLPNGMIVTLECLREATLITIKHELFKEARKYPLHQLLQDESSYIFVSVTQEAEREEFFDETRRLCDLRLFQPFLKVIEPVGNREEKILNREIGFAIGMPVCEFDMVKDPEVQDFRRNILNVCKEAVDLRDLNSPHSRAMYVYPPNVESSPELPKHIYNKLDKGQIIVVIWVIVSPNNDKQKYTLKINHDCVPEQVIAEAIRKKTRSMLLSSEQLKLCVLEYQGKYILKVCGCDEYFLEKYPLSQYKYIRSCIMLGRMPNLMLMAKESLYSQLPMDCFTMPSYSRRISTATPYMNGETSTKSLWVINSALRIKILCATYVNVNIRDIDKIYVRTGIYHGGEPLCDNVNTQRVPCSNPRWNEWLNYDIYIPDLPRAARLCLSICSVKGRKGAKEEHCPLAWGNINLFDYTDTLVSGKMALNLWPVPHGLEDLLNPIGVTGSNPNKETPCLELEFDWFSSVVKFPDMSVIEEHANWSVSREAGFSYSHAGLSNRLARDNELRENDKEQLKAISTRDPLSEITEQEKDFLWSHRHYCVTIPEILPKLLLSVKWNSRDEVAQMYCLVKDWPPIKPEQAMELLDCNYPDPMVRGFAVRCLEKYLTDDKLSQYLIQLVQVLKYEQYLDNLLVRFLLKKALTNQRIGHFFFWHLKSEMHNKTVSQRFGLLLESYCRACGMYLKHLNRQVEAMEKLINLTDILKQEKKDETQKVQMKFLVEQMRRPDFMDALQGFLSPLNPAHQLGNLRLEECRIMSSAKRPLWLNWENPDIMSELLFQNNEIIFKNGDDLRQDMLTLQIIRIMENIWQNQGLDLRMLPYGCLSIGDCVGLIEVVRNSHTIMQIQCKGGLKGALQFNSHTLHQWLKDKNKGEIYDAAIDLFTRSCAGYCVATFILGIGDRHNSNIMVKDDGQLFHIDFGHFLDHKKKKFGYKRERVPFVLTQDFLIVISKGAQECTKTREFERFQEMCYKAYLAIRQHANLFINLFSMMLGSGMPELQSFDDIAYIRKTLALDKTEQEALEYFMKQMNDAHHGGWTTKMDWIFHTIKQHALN
Chain of PI3Kα (P27986 whole entry partner): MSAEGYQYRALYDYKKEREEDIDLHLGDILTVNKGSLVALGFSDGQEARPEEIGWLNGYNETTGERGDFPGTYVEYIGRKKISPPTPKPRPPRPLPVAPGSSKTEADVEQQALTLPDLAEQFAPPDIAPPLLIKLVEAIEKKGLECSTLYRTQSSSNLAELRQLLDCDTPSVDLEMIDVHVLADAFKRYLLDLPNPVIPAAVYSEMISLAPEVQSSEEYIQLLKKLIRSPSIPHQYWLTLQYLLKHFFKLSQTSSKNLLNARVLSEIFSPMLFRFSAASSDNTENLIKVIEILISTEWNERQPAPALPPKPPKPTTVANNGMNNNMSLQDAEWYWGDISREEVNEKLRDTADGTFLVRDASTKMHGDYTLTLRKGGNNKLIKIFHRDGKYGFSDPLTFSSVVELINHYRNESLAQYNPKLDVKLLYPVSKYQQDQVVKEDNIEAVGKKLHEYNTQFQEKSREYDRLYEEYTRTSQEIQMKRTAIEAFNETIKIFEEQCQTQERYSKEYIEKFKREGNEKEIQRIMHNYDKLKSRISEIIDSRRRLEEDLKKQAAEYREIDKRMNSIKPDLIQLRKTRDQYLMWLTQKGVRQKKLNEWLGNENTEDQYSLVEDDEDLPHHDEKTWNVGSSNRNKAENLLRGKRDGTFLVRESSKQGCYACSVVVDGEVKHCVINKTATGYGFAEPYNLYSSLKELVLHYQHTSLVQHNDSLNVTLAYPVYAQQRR
Chain of ProfilerPro Kinase Selectivity Assay Kit kinases (Homo sapiens, UniProt Q13177) (Q13177 2-524 limits assumed): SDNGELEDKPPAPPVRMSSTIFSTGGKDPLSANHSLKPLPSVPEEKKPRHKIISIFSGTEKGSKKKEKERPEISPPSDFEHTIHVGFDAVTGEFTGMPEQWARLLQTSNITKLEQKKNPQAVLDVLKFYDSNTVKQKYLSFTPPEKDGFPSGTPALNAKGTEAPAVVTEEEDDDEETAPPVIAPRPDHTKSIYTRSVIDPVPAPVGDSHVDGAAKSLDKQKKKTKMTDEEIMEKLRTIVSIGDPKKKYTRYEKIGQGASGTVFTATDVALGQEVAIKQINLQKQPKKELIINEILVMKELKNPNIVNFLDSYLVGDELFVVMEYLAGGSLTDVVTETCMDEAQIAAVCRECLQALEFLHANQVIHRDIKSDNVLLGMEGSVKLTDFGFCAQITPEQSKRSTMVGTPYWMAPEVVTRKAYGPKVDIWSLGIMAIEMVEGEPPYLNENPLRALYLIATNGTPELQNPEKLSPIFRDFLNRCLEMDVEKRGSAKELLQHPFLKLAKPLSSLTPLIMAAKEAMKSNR

In the case of `COc1ccc(Nc2ncc(CN3CCN(C(C)=O)CC3)cc2-c2nc(C)nc3[nH]cnc23)cn1` [Example 89, 1-(4-((6-(6-methoxypyridin-3-ylamino)-5-(2-methyl-9H-purin-6-yl)pyridin-3-yl)methyl)piperazin-1-yl)ethanone], the “POC (Percent of control) SGK1” value in assay [1] came to 92 POC. Also, the “POC (Percent of control) ROCK2” value in [2] was 101 POC. The “POC (Percent of control) CHK2” value in [3] is reported as 97 POC. The “POC (Percent of control) FYN” value in assay [4] is 99 POC. The “POC (Percent of control) AKT2” value in assay [5] is listed as 93 POC. Also, in assay [6], the “POC (Percent of control) KDR” value was determined as 92 POC. Moreover, in assay [7], the “POC (Percent of control) SYK” value is 80 POC. Besides, in assay [8], the “POC (Percent of control) MAPKAPK2” value was 100 POC. For the same molecule, the “POC (Percent of control) PKC zeta” value in [9] stood at 109 POC. In assay [10], the “POC (Percent of control) PAK2” value is recorded as 97 POC. Also, in assay [11], the “POC (Percent of control) PKD2” value was found to be 100 POC. Moreover, in [12], the “POC (Percent of control) PIM2” value stood at 93 POC. In addition, the “POC (Percent of control) AMPK” value in [13] (AMPK) was 91 POC. For the same molecule, the “POC (Percent of control) CAMK2” value in assay [13] (CAMK2) is reported as 108 POC. The “POC (Percent of control) PKC beta2” value in assay [13] (PKC beta2) is 94 POC. Besides, the “POC (Percent of control) TAK1” value in [13] (TAK1) is listed as 93 POC. Also, in assay [14], the inhibition constant (Ki) is 42 nM. Moreover, the “Mutant B-raf HTRF Assay POC Mean n = 2” value in assay [15] is reported as 102% of Control (POC). Moreover, the IC50 in assay [16] was found to be 146 nM.
